SMILES | melting point
O=C1N(Cc2ccc3ccccc3c2)c2ccccc2N=C2CCCC12Cc1ccc2ccccc2c1 (stereo not drawn) | 191 to 193 °C
CSc1ccc(-c2n[nH]c(=O)cc2-c2ccc(Cl)cc2)cc1 | 202 to 204 °C
CCOC(=O)c1cn(-c2cnc(Cl)c(N)c2)c2c(Cl)c(F)c(F)cc2c1=O | 233 to 236 °C
N=C(NO)c1cnc(Cl)c(Cl)c1 | 182 to 184 °C
COc1cc2nc(N3CCc4c(cccc4S(=O)(=O)N4CCN(C)CC4)C3)[nH]c(=O)c2cc1OC | 230 to 237 °C
COc1cc(-c2nn(C)c(C(F)(F)F)c2Br)c(F)cc1Cl | 85 to 86 °C
Cc1nc(-c2cnn(-c3c(Cl)cc(C(F)(F)F)cc3Cl)n2)[nH]c1S(=O)(=O)Cl | 254 to 255 °C
OCc1conc1-c1ccc(Cl)c(F)c1 | 124 to 125 °C
Nc1cc(C(F)(F)F)nc(C(=O)O)c1Cl | 131 to 133 °C
CCc1c(OC)nc2nc(-c3nnc(C(F)(F)F)o3)cn2c1C | 210 to 211 °C
C1=C(c2c[nH]c3ccccc23)CCN(CC2COc3ccc4ncccc4c3O2)C1 (stereo not drawn) | 217 °C
Cc1cc(N2CN=C(C(F)(F)F)O2)cc(C)c1OCCCc1ccc(C(C)(F)F)nn1 | 54.5 °C
Cc1cccc2c(-c3ccc(Cl)cc3)onc12 | 134 to 136 °C
CNC(=N)Nc1c(Cl)cccc1Cl | 140 °C
C=CCOc1cnc(SC)nc1 | 41 to 42 °C
CCOc1ccc2nc(Sc3ccc([N+](=O)[O-])c(N)c3)sc2c1 | 126 to 129 °C
COc1cc2c(cc1OC)Sc1ccccc1C(Cl)C2 (stereo not drawn) | 155 to 160 °C
CCn1cc(C(=O)O)c(=O)c2cc(F)c(N3CCNC(c4cccs4)C3)cc21 (stereo not drawn) | 232 to 234 °C
CC(C)(C)OC(=O)N1CCCC(C2=C(C#N)C(c3cccc4nonc34)c3c[nH]nc3N2)C1 (stereo not drawn) | 229 °C
Fc1ccc(-c2[nH]nc(Nc3ccccc3)c2-c2ccncc2)cc1 | 218 to 219 °C
C1=C(c2ccc3c(c2)OCO3)CCN(Cc2n[nH]c3ccccc23)C1 | 139 to 141 °C
O=C(NCCCN1CCC(c2ccccn2)CC1)N1C(=O)OCC1c1ccc(F)c(F)c1 (stereo not drawn) | 142 to 144 °C
CCCCC1(CCCC)c2cc(Br)ccc2-c2ccc(N(c3ccccc3)c3ccccc3)cc21 | 116 to 118 °C
CCc1cc(-c2cc(N)n3nc(-c4ccco4)nc3c2)ccn1 | 184 to 186 °C
Cn1nc(C(F)(F)F)cc1Oc1cc(C#N)cc(-n2ccc(C(F)(F)F)n2)c1 | 116 to 117 °C
NC(=O)c1nc(-c2cccnc2Cl)nc2c1[nH]c(=O)n2-c1ccccc1 | 283 to 286 °C

SMILES | melting point
COc1ccccc1-c1coc2cc(O)c(Cl)cc2c1=O | 228 to 230 °C
CCCOc1ccccc1-c1nc2[nH]c(=O)c(=O)[nH]c2c(=O)[nH]1 | 312 to 315 °C
CN1Cc2c(Cl)cc(F)c(-n3c(=O)cc(C(F)(F)F)n(C)c3=O)c2O1 | 218 to 219 °C
Fc1ccccc1COC1COC(CCl)OC1 (stereo not drawn) | 60 to 62 °C
CN1CCN(c2nc3sc4c(NCCCn5ccnc5)ncnc4c3c3c2COC(C)(C)C3)CC1 | 227 °C
C=C1CC2(C)CC(=O)C(C)(C)C12 (stereo not drawn) | -23 to -20 °C
O=c1c(Br)c(OCc2ccccc2)ccn1CCc1cccs1 | 128 to 130 °C
CC1=C(C)[C@]23OC[C@](C)(CCC2=C(C)C1=O)O3 | 99 to 100 °C
O=Cc1ccc(-c2ccccc2)c(F)c1 | 82 to 83 °C
O=C1NC2CCC1C(O)C2 (stereo not drawn) | 115 to 120 °C
O=C1CN(c2ccccc2)C(=S)N1c1ccccc1 | 214 °C
Cc1cc(Cl)ccc1OCc1ccccc1C(O)c1nccn1C (stereo not drawn) | 159 to 160 °C
CC1(C)C=Cc2c(O)cc(-c3cc4ccc(O)cc4o3)cc2O1 | > 250 °C
O=C(CCCc1cccs1)N[C@H](Cc1ccc(C(F)(F)F)cc1)[C@@H](O)c1cccc2ccccc12 (racemic) | 139 to 140 °C
CCC(CC)n1nnc2cc(C)c(C)c([N+](=O)[O-])c21 | 106 to 108 °C
COc1nccc2c(C)c3[nH]c4ccncc4c3cc12 | > 263 °C
O=C1NCC(Cc2ccccc2-c2ccccc2)O1 (stereo not drawn) | 146 to 148 °C
Oc1ccc(CCNc2ncnc3nccnc23)cc1 | > 210 °C
COc1ccc2ncc3c(=O)n(-c4ccccc4)oc3c2c1 | 140 °C
CCCN(CCC)Cc1nc(-c2ncn3c2[C@@H]2CCN2C(=O)c2ccccc2-3)no1 | 208 to 210 °C
Cn1nc(Cl)c(C(=O)Cc2ccccc2)c1Cl | 94 to 96 °C
COc1ccc2[nH]c(SCC3(N4CCCC4)NC=NC(N4CCCC4)=C3C)nc2c1 (stereo not drawn) | 104 to 106 °C
O=C1c2ccccc2C(=O)C1(c1ccccc1)N1CCC(c2noc3cc(F)ccc23)CC1 | 149 to 150 °C
O=C1Nc2ccc([N+](=O)[O-])cc2C1(Br)Br | 205 °C
CC(C)CCCC(C)C1CCC2C3=C(CCC21C)C1(C)CCC(O)CC1CC3=O (stereo not drawn) | 115 to 117 °C

Next, values leading:

melting point | SMILES
276 to 277 °C | COc1cccc(-c2cn(-c3ccc(C(=O)O)cc3)nn2)c1
151 to 153 °C | CNC(=O)C1CC2(CCN(CCCC(=O)c3ccc(F)cc3)C2)c2ccc(Cl)cc21 (stereo not drawn)
203 °C | Nc1nc2ccc(NC(=O)C(=O)N3CCC(Cc4ccccc4)CC3)cc2s1
161 to 162 °C | Cc1nc(-c2cc3cccc(N(C)S(=O)(=O)c4cccs4)c3[nH]2)cs1
114 to 115 °C | CCOC(=O)c1ccc(-c2ccc(C#N)cc2)cc1
160 to 161 °C | CCSc1cc(C)nc(SCC)c1NC(=O)CCCSc1nc2ccccc2[nH]1
89 to 90 °C | CC(C)NC(=O)OCC(=O)c1ccc(Oc2ccccc2)cc1
263 to 267 °C | CCc1ccc(C(=O)C2=C(O)C(=O)N(c3ccc(C)nn3)C2c2ccc(OC(F)(F)F)cc2)cc1 (stereo not drawn)
135 to 137 °C | C[C@@H](Cn1ncc2ccc(O)c(C=O)c21)NC(=O)OCc1ccccc1
154 to 155 °C | CC(C)C(NC(=O)Cn1cccc(NC(=O)CCc2ccccc2)c1=O)C(=O)C(F)(F)F (stereo not drawn)
164 to 165 °C | CCCCc1nc2ccc(C)c(C(=O)OCC)c2n1Cc1ccc(-c2ccccc2-c2nnn[nH]2)cc1
146 to 147 °C | COC(CCC(C)C1CCC2C3C(OC(C)=O)CC4CC(OC(C)=O)CCC4(C)C3CC(=O)C12C)=NNS(=O)(=O)c1ccc(C)cc1 (stereo not drawn)
157 to 159 °C | COc1ccc(NC(=O)Oc2cccc3ccoc23)cc1
292 to 294 °C | CS(=O)(=O)c1cc(Cl)c2[nH]cc(CC(N)C(=O)O)c2c1 (stereo not drawn)
170 to 173 °C | CC(=O)N1Cc2c(n(-c3cccc(Cl)c3)c3ncccc3c2=O)C1
208 to 210 °C | COc1ccc(-c2c(Cl)ncn2-c2ccc(S(=O)(=O)NC(C)(C)C)cc2)cc1F
167 to 168 °C | CC[C@H](C)[C@H](NS(=O)(=O)c1cccc2ccccc12)C(=O)N[C@@H](Cc1c[nH]c2ccccc12)C(=O)O
184 to 186 °C | NC(=O)Cc1cccc(C(=O)c2ccc(F)cc2)c1N
170 to 172 °C | CC(N)=CC(=O)c1cccs1
101 to 104 °C | CCOC(=O)[C@H](Cc1ccc(-c2c(OC)cc(CO)cc2OC)cc1)NC(=O)c1c(F)cccc1Cl
135 to 136 °C | CCOC(=O)c1c(CBr)nc2cc(OC)c(OC)cc2c1-c1ccc(OC)c(OC)c1
152 to 154 °C | CC(=O)Nc1ccc(I)cc1F
147 to 148 °C | COC1(c2ccc(CCc3cc(F)cc(F)c3NC(=O)C(C)(C)C)cc2)CCOCC1
> 250 °C | COC(=O)c1ccc(-c2nc3[nH]c4ccccc4c3c(=O)[nH]2)cc1

melting point | SMILES
81 to 83 °C | CCOC(=O)C1=Cc2cc(-c3ccc(CC)cc3)ccc2OCC1
138 °C | CCOC(=O)CC(CCCCNC(=O)c1sc(NC(=N)N)nc1C)c1ccccc1 (racemic)
201 °C | CCS(=O)(=O)N=CNCc1cccc(-c2csc(N=C(N)N)n2)n1
138 to 141 °C | CCOC(=O)CC(=O)Nc1nc(C)cs1
123 to 124 °C | OC(CCCl)COc1ccc(-c2ccccc2)cc1 (stereo not drawn)
188 to 189 °C | CCc1nc2cc(Cl)c(Cl)nc2n1-c1ccc(CCNC(=O)NS(=O)(=O)c2ccc(C)cc2)cc1
242 to 244 °C | NC(=O)Cc1ccc2noc(-c3ccc(Cl)cc3)c2c1
201 to 202 °C | Cc1ccc(-n2c(-c3ccccc3)cc(Br)c2-c2ccccc2)cc1
108 to 110 °C | CC(C)=CCC(CC=C(C)C)(C(=O)NO)S(=O)(=O)c1ccc(C)cc1
168 to 169 °C | O=C(Nc1ccc(-n2nc(C(F)(F)F)cc2C(F)(F)F)cc1)c1cc(F)ccc1F
153 to 154 °C | NC(=O)CNC(=O)c1cccc(-c2cccc3cc(CCc4cccc(C(F)(F)F)c4)sc23)c1
129 to 131 °C | CC(C)(C)c1cc(CN(c2cccnc2)S(=O)(=O)c2cccc(Br)c2)cc(C(C)(C)C)c1O
113 to 120 °C | CNC(=O)c1sc(C(C)(C)C)cc1NC(=O)Nc1ccc(C(C)C)cc1
267 °C | CNc1nc(Nc2ccc(Cl)c(Cl)c2)ncc1NC(C)=O
166 to 168 °C | CC(C)(C)c1cc(-c2nc(CC(=O)O)co2)cc(C(C)(C)C)c1O
137 to 139 °C | CSC(NCCSCc1[nH]cnc1C)=C(C#N)C(N)=O
194 to 196 °C | C[C@@H]1[C@H]2C(=O)N(Cc3ccccc3)C(=O)[C@H]2[C@@H](c2ccc(C(N)=NO)cc2)N1C (racemic)
140 to 145 °C | Cc1ccc(-c2ccccc2C(=O)Nc2ccc(C(=O)N3C[C@@H]4CCCN4C(=S)c4ccccc43)cc2)cc1
114 to 116 °C | O=S(=O)(Nc1cccc(CCOCc2csc(-c3ccc(Cl)cc3)n2)c1)C(F)(F)F
82 to 87 °C | CC(C)C[C@H](NC(=O)OCc1ccccc1)C(=O)N[C@@H](Cc1ccccc1)C(=O)CSCc1ccccn1
215 to 217 °C | Cc1c(CC(C)(C)C(=O)O)n(Cc2ccc(Cl)cc2)c2ccc(OCc3ccc4ccccc4n3)cc12
148 to 150 °C | Cc1cc([N+](=O)[O-])cc(C)c1Oc1ccc(O)c(C(=O)c2ccc(F)cc2)c1
90 to 91 °C | Cc1cc2c(c(C)c1Br)C(c1ccc(C(C)C)cc1)CO2 (stereo not drawn)

— a melting point compilation (Tetko et al.; mined from patent text by program, amines drawn as free bases though some values may be those of a salt)
